Data: US10716869B2, “Radiolabeled macrocyclic EGFR inhibitor” (Oncodesign SA, priority 2016, dated 2020)
Values after ≈ are worked out from the molar mass of the structure shown. Values joined by “and” are separate entries in the source; they are usually repeats but may differ in a detail not shown here. Identical values can stand only once. Like-named read-outs stand apart in the source and are kept apart here.

How the values were obtained:
[1] = biological target: T1, EGFR L858R (human, 672-1210) (Homo sapiens, UniProt P00533, L858R); assay: radiometric protein kinase assay (33PanQinase Activity Assay); conditions: Tests 1-3 are repeat determinations; read-out: Biochemical IC50 EGFR L858R
T1 construct: (human, 672-1210)
T1 sequence (P00533 672-1210 L858R): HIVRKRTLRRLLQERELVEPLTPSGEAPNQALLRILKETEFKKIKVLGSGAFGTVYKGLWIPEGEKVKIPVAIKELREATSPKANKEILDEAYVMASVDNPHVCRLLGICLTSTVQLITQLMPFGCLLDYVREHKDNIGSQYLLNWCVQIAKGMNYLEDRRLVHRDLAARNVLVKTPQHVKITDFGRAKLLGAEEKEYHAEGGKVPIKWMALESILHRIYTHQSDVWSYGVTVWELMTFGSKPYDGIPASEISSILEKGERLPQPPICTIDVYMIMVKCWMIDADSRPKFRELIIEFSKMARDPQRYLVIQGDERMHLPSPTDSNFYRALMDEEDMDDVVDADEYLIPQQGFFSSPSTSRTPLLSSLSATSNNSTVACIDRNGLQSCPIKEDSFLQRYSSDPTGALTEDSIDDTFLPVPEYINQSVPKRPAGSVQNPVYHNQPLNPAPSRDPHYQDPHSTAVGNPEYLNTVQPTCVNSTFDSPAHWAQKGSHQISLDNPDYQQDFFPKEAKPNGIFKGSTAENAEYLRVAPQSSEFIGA
Experimental: (§1) The compounds were tested in 100% DMSO, all recombinant protein kinases and substrates with respective concentration are described in table 1.

[2] = biological target: T2, EGFR T790M/L858R (human, 672-1210) (Homo sapiens, UniProt P00533, L858R/T790M); assay: as above; conditions: Tests 1-3 are repeat determinations; read-out: Biochemical IC50 EGFR L858R/T790M
T2 construct: (human, 672-1210)
T2 sequence (P00533 672-1210 T790M/L858R): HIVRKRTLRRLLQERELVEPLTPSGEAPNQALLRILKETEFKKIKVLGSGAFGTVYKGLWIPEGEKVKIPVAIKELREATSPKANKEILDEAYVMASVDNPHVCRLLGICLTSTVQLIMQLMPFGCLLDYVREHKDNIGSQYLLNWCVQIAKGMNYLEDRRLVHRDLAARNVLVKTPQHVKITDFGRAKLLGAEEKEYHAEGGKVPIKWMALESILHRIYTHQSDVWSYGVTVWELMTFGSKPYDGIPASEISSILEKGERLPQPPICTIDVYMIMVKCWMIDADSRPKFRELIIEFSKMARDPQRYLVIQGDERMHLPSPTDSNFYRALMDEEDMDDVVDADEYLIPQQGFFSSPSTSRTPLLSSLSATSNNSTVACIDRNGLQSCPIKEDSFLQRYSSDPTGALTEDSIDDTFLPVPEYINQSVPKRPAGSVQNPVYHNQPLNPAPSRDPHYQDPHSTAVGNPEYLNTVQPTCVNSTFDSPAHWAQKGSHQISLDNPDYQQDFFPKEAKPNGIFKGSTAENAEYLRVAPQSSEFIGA
Experimental: as §1

[3] = biological target: T3, EGFR wt (human, 672-1210) (Homo sapiens, UniProt P00533); assay: as above; conditions: Tests 1-3 are repeat determinations; read-out: Biochemical IC50 EGFR WT (activated)
T3 construct: (human, 672-1210)
T3 sequence (P00533 672-1210): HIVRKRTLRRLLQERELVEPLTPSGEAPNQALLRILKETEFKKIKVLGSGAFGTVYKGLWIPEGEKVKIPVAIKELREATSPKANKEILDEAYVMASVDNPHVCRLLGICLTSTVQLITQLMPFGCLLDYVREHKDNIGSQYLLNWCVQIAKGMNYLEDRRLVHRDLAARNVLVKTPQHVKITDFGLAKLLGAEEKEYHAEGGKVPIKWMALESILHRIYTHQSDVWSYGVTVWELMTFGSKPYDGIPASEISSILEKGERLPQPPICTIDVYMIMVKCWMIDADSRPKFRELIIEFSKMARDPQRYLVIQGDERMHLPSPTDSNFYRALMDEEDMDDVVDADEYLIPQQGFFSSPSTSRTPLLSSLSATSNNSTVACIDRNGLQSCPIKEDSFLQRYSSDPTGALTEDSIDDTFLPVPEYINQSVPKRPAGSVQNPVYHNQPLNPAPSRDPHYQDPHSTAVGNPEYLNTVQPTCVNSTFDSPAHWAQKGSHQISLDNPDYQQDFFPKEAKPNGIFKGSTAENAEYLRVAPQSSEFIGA
Experimental: as §1

T790M (EGFR mutant) = T790M (EGFR mutant) (Homo sapiens, UniProt P00533, L858R/T790M); assay: as above; conditions: Test 1; read-out: Biochemical IC50 T790M
T790M (EGFR mutant), sequence (P00533 672-1210 T790M/L858R): as the sequence (P00533 672-1210 T790M/L858R) above
Experimental: A radiometric protein kinase assay (^33PanQinase® Activity Assay) was used for measuring the biochemical kinase activity of 3 protein kinases, EGFR wild-type and 2 EGFR mutants (L858R, L858R/T790M). The compounds were tested in 100% DMSO, all recombinant protein kinases and substrates with respective concentration are described in table 1.

NCI-H3255 (EGFR_L858R) = assay: MTS cell viability assay, 72 hours; type: cell-based, Human
Experimental: (§2) The cell lines that were used to assay the cellular activity of the compounds are detailed in table 3 hereafter:
(§3) Tumor cells grew as monolayer at 37° C. in a humidified atmosphere (5% CO2) in complete culture medium adapted to each cell line. The cellular activity of the compounds was assessed by measuring the viability of cancer cell in MTS assay using a tetrazolium compound (MTS, 3-(4,5-dimethylthiazol-2-yl)-5-(3-carboxymethoxy phenyl)-2-(4-sulfophenyl)-2H-tetrazolium) and an electron coupling reagent named PMS (phenazine methosulfate). MTS is bioreduced by cells into a formazan product that is directly soluble in culture medium without processing. The cells were seeded 24 hours before treatment at the appropriate density in their culture medium to be near 90% of confluence at the end of experiment in vehicle treated conditions. After addition of compounds, the cells were incubated for 72 hours.

NCI-H441 (EGFR WT) = assay: MTS cell viability assay, 72 hours; type: cell-based, Human; conditions: read-out: Cellular IC50 NCI-H441 (EGFR WT)
Experimental: as §2, §3

[4] = test system: panel of 92 wild-type kinases; assay: kinase selectivity, residual activity at 100 nM and 1 μM; conditions: for selectivity score S(50): 92 wild-type kinases
Description: Corresponding kinases and substrates were always tested at the ATP Km concentration.

MCF-7 = assay: MTS cell viability assay, 72 hours; type: cell-based; conditions: Homo sapiens, MCF7, 72 h, negative control, does not express EGFR, read-out: Cellular IC50 MCF-7
Experimental: as §2, §3

[5] = test system: NCI-H1975 (EGFR L858R/T790M); assay: MTS cell viability assay, 72 hours; type: cell-based; conditions: Homo sapiens, NCI-H1975, 72 h, read-out: Cellular IC50 NCI-H1975 (EGFR L858R/T790M)
Experimental: as §2, §3

[6] = kinetic solubility in PBS at pH 7.4; type: physicochemical; conditions: pH 7.4, aqueous buffer, kinetic from dmso stock
Experimental: The kinetic solubility of the compounds was assessed in PBS at pH 7.4.

[7] = metabolic microsomal stability, human liver microsomes; type: in vitro ADME; conditions: pH 7.4, 0.5 mg/mL protein
Experimental: (§4) Metabolic microsomal stability was performed on human and rat liver microsomes. Microsomes (final protein concentration 0.5 mg/mL), 0.1 M phosphate buffer pH 7.4 and test compound (final substrate concentration=3 μM; final DMSO concentration=0.25%) are pre-incubated at 37° C. prior to the addition of NADPH (final concentration=1 mM) to initiate the reaction. Analysis is done with generic LC-MS/MS conditions to determine half-life and intrinsic clearance using standard equations. […] In human, Compound (Ia) metabolic stability was better than in rat and favorable for clinical studies.

[8] = metabolic microsomal stability, rat liver microsomes; type: in vitro ADME; conditions: pH 7.4, 0.5 mg/mL protein
Experimental: as §4

WT NCI-H441 tumors = assay: in vivo specificity: competition for uptake of Compound (I); design: species or system rats; conditions: gefitinib 2 mg/rat or Compound (Ia) 1 mg/rat
[9] = test system: NCI-H3255 tumors (simple mutation); assay: as above; design: species or system rats; conditions: gefitinib 2 mg/rat or Compound (Ia) 1 mg/rat
[10] = test system: NCI-H1975 tumors (double mutation); assay: as above; design: species or system rats; conditions: gefitinib 2 mg/rat or Compound (Ia) 1 mg/rat
[11] = biological target: EGFR phosphorylation in NCI-H441 (Homo sapiens, UniProt P00533); assay: EGFR Y1068 phosphorylation, Western blot; conditions: NCI-H441, 10 ng/ml EGF
EGFR phosphorylation in NCI-H441, sequence (P00533 25-1210): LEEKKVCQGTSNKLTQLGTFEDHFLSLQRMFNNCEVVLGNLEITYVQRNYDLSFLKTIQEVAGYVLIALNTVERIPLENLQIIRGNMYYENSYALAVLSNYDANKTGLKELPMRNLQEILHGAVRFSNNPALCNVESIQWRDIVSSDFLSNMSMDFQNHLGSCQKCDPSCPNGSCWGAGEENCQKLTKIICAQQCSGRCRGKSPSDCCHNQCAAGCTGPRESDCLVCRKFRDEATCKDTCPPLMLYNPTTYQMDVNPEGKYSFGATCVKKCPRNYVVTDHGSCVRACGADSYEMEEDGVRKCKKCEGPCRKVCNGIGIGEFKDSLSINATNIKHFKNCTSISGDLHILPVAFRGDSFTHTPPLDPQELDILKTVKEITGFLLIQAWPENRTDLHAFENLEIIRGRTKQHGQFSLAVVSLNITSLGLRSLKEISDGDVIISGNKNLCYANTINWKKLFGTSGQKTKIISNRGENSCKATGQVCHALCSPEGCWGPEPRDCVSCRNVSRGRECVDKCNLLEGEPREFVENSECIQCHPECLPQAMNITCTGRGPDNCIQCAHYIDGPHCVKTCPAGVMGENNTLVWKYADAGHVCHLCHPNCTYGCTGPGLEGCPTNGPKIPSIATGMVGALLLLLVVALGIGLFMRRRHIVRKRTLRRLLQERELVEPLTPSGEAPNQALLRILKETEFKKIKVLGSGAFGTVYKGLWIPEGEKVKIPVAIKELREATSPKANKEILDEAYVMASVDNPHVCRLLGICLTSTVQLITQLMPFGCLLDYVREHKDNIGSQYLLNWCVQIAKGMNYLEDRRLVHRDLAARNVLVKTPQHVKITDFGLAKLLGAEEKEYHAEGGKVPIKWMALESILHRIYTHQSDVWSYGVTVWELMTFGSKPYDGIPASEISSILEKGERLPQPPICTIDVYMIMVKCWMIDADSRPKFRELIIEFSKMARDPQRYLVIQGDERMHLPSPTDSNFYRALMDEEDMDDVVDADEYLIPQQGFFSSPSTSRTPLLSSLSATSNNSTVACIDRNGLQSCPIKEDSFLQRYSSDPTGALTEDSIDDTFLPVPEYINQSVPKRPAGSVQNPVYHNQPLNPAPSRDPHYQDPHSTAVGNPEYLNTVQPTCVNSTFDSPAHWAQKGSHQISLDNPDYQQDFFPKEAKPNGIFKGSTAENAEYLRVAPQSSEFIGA

[12] = biological target: constitutively active EGFR in NCI-H3255 (Homo sapiens, UniProt P00533, L858R); assay: EGFR Y1068 phosphorylation, Western blot
[13] = biological target: double mutant EGFR expressed by NCI-H1975 (Homo sapiens, UniProt P00533, L858R/T790M); assay: EGFR Y1068 phosphorylation, Western blot
double mutant EGFR expressed by NCI-H1975, sequence (P00533 25-1210 T790M/L858R): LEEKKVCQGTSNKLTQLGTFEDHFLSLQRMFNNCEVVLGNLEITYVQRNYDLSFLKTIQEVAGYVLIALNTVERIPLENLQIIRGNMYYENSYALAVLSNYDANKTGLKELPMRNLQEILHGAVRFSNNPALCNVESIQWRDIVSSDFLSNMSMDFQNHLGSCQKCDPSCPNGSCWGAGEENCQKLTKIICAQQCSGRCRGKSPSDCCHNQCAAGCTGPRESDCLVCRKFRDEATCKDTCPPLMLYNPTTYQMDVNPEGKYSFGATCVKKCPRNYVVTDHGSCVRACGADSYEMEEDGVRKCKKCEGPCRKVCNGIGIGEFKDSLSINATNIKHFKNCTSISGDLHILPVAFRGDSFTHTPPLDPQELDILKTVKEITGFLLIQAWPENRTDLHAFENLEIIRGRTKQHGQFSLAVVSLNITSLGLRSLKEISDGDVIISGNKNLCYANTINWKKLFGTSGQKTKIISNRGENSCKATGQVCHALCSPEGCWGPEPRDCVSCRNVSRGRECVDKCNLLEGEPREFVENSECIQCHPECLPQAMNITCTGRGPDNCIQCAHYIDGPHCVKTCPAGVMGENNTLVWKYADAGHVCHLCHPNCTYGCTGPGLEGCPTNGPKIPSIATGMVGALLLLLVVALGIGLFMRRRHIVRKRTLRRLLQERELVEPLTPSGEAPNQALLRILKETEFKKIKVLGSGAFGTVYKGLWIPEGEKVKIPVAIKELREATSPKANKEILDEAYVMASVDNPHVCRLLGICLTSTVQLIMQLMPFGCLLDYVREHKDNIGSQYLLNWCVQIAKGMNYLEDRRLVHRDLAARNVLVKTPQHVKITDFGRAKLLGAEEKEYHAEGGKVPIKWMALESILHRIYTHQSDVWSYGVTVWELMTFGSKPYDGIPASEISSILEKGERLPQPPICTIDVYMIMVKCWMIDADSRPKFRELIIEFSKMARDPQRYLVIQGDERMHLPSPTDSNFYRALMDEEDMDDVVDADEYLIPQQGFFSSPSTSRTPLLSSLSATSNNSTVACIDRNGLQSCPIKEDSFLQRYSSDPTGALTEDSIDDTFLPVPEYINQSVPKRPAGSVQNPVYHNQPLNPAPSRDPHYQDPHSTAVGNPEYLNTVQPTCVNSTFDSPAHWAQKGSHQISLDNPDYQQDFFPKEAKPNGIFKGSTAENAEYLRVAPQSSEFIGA

[14] = Homo sapiens, NCI-H3255, 72 h, read-out: Cellular IC50 NCI-H3255 (EGFR_L858R)

| IC50 [1] | IC50 [2] | IC50 [3] | IC50 (T790M (EGFR mutant)) [nM] | IC50 (NCI-H441 (EGFR WT); Homo sapiens, NCI-H441, 72 h) [nM] | selectivity score S(50) ([4]; at 100 nM) | selectivity score S(50) ([4]; at 1 μM) | IC50 (NCI-H3255 (EGFR_L858R); [14]) [nM] | SMILES | change of uptake of Compound (I) after competition (WT NCI-H441 tumors) | also measured |
| --- | --- | --- | --- | --- | --- | --- | --- | --- | --- | --- |
| 2.7 nM | 77.7 nM | 3.1 nM | 54.7 | 34700 | 0.6% | 2.8% | – | CC(C)[C@H]1NC(=O)Cc2ccc(Cl)cc2Nc2ncnc3cc(OCCF)c(cc23)OCCCNC1=O [Compound (IIIa)] | – | IC50 (NCI-H3255 (EGFR_L858R); Homo sapiens, NCI-H3255, 72 h, read-out: mean IC50 on NCI-H3255): 6.1 nM; IC50 (NCI-H441 (EGFR WT)): > 25000 nM |
| < 10 nM and 6.3 nM | 924 nM | < 10 nM and 5.9 nM | 1010 | > 25000 | 2.2% and 2.5% | 11.9% and 13% | 30 | CC(C)[C@@H]1NC(=O)Cc2ccc(Cl)cc2Nc2ncnc3cc(OCCF)c(cc23)OCCCNC1=O [Compound (IIa)] | – | IC50 (NCI-H3255 (EGFR_L858R); read-out: Cellular IC50 NCI-H3255 (EGFR_L858R)): 49 nM; wild-type kinases inhibited for more than 50% ([4]; at 100 nM): EGFR and RIPK2 were the only wild-type kinases inhibited for more than 50%; number of other kinases with inhibition of >50% ([4]; at 1 μM): 9 |
| 3 nM and 8 nM and 4.1 nM | 372 nM and 990 nM and 246 nM | 3.2 nM and 5 nM and 5.7 nM | – | 34700 ± 24000 | – | – | 6 ± 2 | CC(C)C1NC(=O)Cc2ccc(Cl)cc2Nc2ncnc3cc(OCCF)c(cc23)OCCCNC1=O (stereo not drawn) [Compound (Ia)] | 5% | IC50 (MCF-7): 62100 nM; IC50 [5]: 5000 ± 1400 nM; solubility kinetic [6]: 88 µM (≈ 46.6 µg/mL); microsomal CLint at 3 μM [7]: 7.76 ± 2.53 µL/min/mg; half-life at 3 μM ([7]; read-out: human microsomal stability t1/2): 2.98 h; microsomal CLint at 3 μM [8]: 37.9 ± 1.89 µL/min/mg; half-life at 3 μM ([8]; read-out: rat microsomal stability t1/2): 0.608 h; decrease of T/M ratios of Compound (I) by competition [9]: 52%; change of T/M ratios of Compound (I) after competition [10]: −55%; inhibition of EGF-induced EGFR Y1068 phosphorylation [11]: almost full inhibition observed at 1 μM; concentration at which full inhibition of constitutively active EGFR was observed [12]: ~100 nM; inhibition of constitutively active double mutant EGFR [13]: partially inhibit EGFR activity at 10 μM |
| – | – | – | – | – | – | – | – | COc1cc2ncnc(Nc3ccc(F)c(Cl)c3)c2cc1OCCCN1CCOCC1 [Gefitinib, gefitinib, reference compound] | +16% | – |
